Test results: patent publication US6903116B2, “Methods of treating cancer using a heat shock factor activity inhibitor” (Kaneka Corp., priority 1997, dated 2005)

Tests used:
[1] = test system: promoter region including the HSE sequence for HSP47; assay: Reporter protein expression suppression, stable transformant A (HSE/HSP47 promoter β-galactosidase); type: cell-based, Chinese hamster; conditions: heat shock 42° C. 90 min, relative to DMSO
Description: A plasmid was produced in which a β-galactosidase gene was located downstream of a promoter region including the HSE sequence for HSP47. […] Chinese hamster ovary (CHO) cells were transfected with the plasmid to obtain stable transformant […]. These stable transformants were pre-treated with Compounds 101, 102 and 103 above and Compound C (1-acetyl-3-benzo-(1,3)dioxole-5-ylmethylene-pyrrolidin-2-one; this compound is represented by general formula (I) of the present invention wherein X is —CH2— and R^1 is acetyl) in a CO2 incubator at 37° C. for 60 min. Then, the transformants were subjected to a heat shock of 42° C. for 90 min, recovered at 37° C. for 2 hours, and incubated at a room temperature for 30 min with 4-methylumbelliferyl-β-D-galactoside as a substrate for the activity of β-galactosidase expressed in the cell. Then, the fluorescence was measured (excitation at 365 nm, emission at 450 nm). The amount of β-galactosidase expressed after a treatment with test compounds or the known HSF and HSP inhibitor quercetin as a control agent was divided by the amount of β-galactosidase expressed after a treatment with dimethylsulfoxide (DMSO) as a solvent control, thereby calculating the expression rate (%) as shown in Table 1.

SV40 early promoter = assay: Reporter protein expression suppression, stable transformant B (SV40 early promoter β-galactosidase); type: cell-based, Chinese hamster; conditions: heat shock 42° C. 90 min, relative to DMSO
[2] = test system: HSP70 (inducible type) mRNA; assay: Transcription suppression of HSP70 (inducible type) mRNA by Northern hybridization; type: cell-based; conditions: COLO320DM cells, heat shock 42° C. 90 min; for Transcription Amount of HSP70 (induced type): 100 μM, DMSO = 1.0
Experimental: COLO320DM cells (ATCC CCL-220) were pre-treated with Compounds 101, 102 and 103 in a CO2 incubator at 37° C. for 60 min using 10% FCS, DMEM medium (Gibco BRL), after which the cell was subjected to a heat shock of 42° C. for 90 min. Immediately thereafter, the treated cells were collected, and total RNA was extracted from the cells by using the acid guanidine thiocyanate phenol chloroform (AGPC) method. The total RNA was electrophoresed, transferred to a nylon filter, and the amounts of HSP mRNA were compared among experimental groups by using the Northern hybridization method. cDNA of HSP70 (inducible type) labeled with [α-^32P] dCTP was used as a probe, and cDNA of β-actin was used as an internal control. […] Table 2 provides comparison in the amount of transcription of HSP70 (inducible type) among cells which were subjected to a heat shock after treatment with the respective compounds, with the amount of induced transcription in a cell treated with the control solvent DMSO being 1.0.

HSP40 = assay: HSP expression induction suppression by 2-dimensional electrophoresis, HSP40; type: cell-based; design: key: ↑↑↑: Not Suppressed (Strongly Induced); ↓: Slightly Suppressed; ↓↓: Suppressed; ↓↓↓: Strongly Suppressed; conditions: 100 μM; COLO320DM cells; compared with DMSO control
Experimental: (§1) COLO320DM cells were pre-treated with Compounds 101, 102 and 103 at 37° C. for 60 min, followed by application of a heat shock at 42° C. for 90 min, and recovery at 37° C. for 2 hours. Then, the media were replaced with methionine-free media, and the cells were treated at 37° C. for 1 hour with ^35S-methionine to label newly synthesized proteins.
(§2) The cell lysate was obtained, subjected to an isoelectric focusing as the first dimension and then to an expansion by SDS-PAGE as the second dimension. Then, the gel was subjected to fluorography so as to compare between the amounts of HSP synthesized with and without heat induction. Comparison between the amounts of β-actin synthesized as an internal control with and without heat induction confirmed that the other proteins were normally synthesized.

HSP47 = assay: HSP expression induction suppression by 2-dimensional electrophoresis, HSP47; type: cell-based; design: key: ↑↑↑: Not Suppressed (Strongly Induced); ↓: Slightly Suppressed; ↓↓: Suppressed; ↓↓↓: Strongly Suppressed; conditions: 100 μM; COLO320DM cells; compared with DMSO control
Experimental: as §1, §2

HSP70 = assay: HSP expression induction suppression by 2-dimensional electrophoresis, HSP70; type: cell-based; design: key: ↑↑↑: Not Suppressed (Strongly Induced); ↓: Slightly Suppressed; ↓↓: Suppressed; ↓↓↓: Strongly Suppressed; conditions: 100 μM; COLO320DM cells; compared with DMSO control
Experimental: as §1, §2

HSP90 = assay: HSP expression induction suppression by 2-dimensional electrophoresis, HSP90; type: cell-based; design: key: ↑↑↑: Not Suppressed (Strongly Induced); ↓: Slightly Suppressed; ↓↓: Suppressed; ↓↓↓: Strongly Suppressed; conditions: 100 μM; COLO320DM cells; compared with DMSO control
Experimental: as §1, §2

HSP100 = assay: HSP expression induction suppression by 2-dimensional electrophoresis, HSP100; type: cell-based; design: key: ↑↑↑: Not Suppressed (Strongly Induced); ↓: Slightly Suppressed; ↓↓: Suppressed; ↓↓↓: Strongly Suppressed; conditions: 100 μM; COLO320DM cells; compared with DMSO control
Experimental: as §1, §2

β-actin = assay: 2-dimensional electrophoresis, β-actin internal control; type: cell-based; conditions: 100 μM; COLO320DM cells
Experimental: as §1, §2

COLO320DM cells = assay: Cell heat resistance suppression, colony formation assay; type: cell-based; conditions: 100 μM; pre-heating 42° C. 90 min, then 45° C. 60 min; all colonies counted
Experimental: COLO320DM cells were pre-treated with the above-described compounds at 37° C. for 60 min, followed by pre-heating by application of a heat shock of 42° C. for 90 min. The cells were further treated at 37° C. for 60 min. Then, the media were replaced respectively with compound-free media, and the cells were further incubated at 37° C. for 60 min. Thereafter, the cells were treated at 45° C. for 60 min, and cultured for about 10 days followed by measurement of the number of surviving cells as the number of colonies using a colony formation assay. […] The number of colonies formed without the treatment at 45° C. was substantially the same among all of the drugs.
The compounds of the present invention clearly confirmed to have the inhibitory effect on the acquisition of cell heat resistance, which is greater than that obtained with the known inhibitor quercetin. The surviving fraction was calculated according to the following formula: Surviving Fraction (%)=A/B×100 • A: Cell Survival Fraction With Treatment at 45° C. for 60 min • B: Cell Survival Fraction Without Treatment at 45° C. Cell Survival Fraction=C/D • C: Number of Surviving Cells • D: Number of Cells Seeded

[3] = Antidepressant effect in forced swimming test; type: in vivo; conditions: 100 mg/kg orally once, Wistar male rat; for No-Movement Period: 5-minute test; for Suppression Rate (%): versus physiological saline
Experimental: The experiment was conducted as a partial modification of the Porsolt, R. D. et al. method (Eur. J. Pharm., 47: 379, 1978). In particular, a Wistar male rat (5 weeks of age, weight: 130-150 g) was dropped into water (temperature: 25° C.) about 15 cm deep in a glass cylinder having an inner diameter of 18 cm and a height of 40 cm. The rat was taken out after 15 min, dried and put back into a home cage. […] One hundred mg/kg of each test compound, suspended in a physiological saline, was orally administered once before the 5-minute test so as to examine the antidepression effect. One hundred mg/kg of imipramine, a known antidepressant, as a control drug and 5 ml/kg of a physiological saline as a control were similarly orally administered. A shortened no-movement period was calculated as a suppression rate according to the following formula: Suppression Rate (%)=(E−F)/E×100 • E: No-Movement Period with Physiological Saline • F: No-Movement Period with Test Compound

[4] = test system: murine carcinoma cell (SCC VII); assay: Inhibitory effect on cancer heat resistance acquisition, tumor growth delay assay; type: in vivo, C3H/He mice
Experimental: A murine carcinoma cell (SCC VII) was implanted in the right leg of C3H/He mice (male, about 10 mice for each group), and the experiment was started when the tumor became about 1 cm in diameter. The tumor was heated by soaking the tumor site of each mouse under general anaesthesia into a constant temperature bath at 44° C. The inhibitory effect on the heat resistance acquisition by cancer cell was examined by a growth delay assay on the tumor. Two hundred mg/kg of each test compound, suspended in an olive oil, was intraperitoneally administered once 6 hours before the first heating. The first heating was performed for 10 minutes (H1), and the second heating was performed for 30 minutes (H2), with a recovery period of 8 hours at room temperature between the first heating and the second heating.

SMILES	Expression Rate (%) Transformant A ([1]; 5 μM) [%]	Expression Rate (%) Transformant A ([1]; 50 μM) [%]	Expression Rate (%) Transformant B (SV40 early promoter; 5 μM) [%]	Expression Rate (%) Transformant B (SV40 early promoter; 50 μM) [%]	Transcription Amount of HSP70 (induced type) [2]	Suppression of mRNA transcription of HSP70 (in words) [2]	HSP Induction by Heat Shock Treatment, HPS40 (HSP40)	HSP Induction by Heat Shock Treatment, HSP47 (HSP47)	HSP Induction by Heat Shock Treatment, HSP70 (HSP70)	HSP Induction by Heat Shock Treatment, HSP90 (HSP90)	HSP Induction by Heat Shock Treatment, HSP100 (HSP100)	β-actin synthesis by Heat Shock Treatment (internal control) (β-actin)	Surviving Fraction (%) (COLO320DM cells)	No-Movement Period [3] [s]	Suppression Rate (%) [3] [%]	Expression Rate (%) Transformant A ([1]; 100 μM) [%]	Expression Rate (%) Transformant B (SV40 early promoter; 100 μM) [%]	Mean days before tumor tripled ([4]; 200 mg/kg i.p. 6 hours before first heating, 44° C. 10 min (H1), 8 hr, 30 min (H2)) [days]	Mean days before tumor tripled ([4]; 200 mg/kg i.p., 44° C., 30 min heating) [days]	Mean days before tumor tripled ([4]; 200 mg/kg intraperitoneally once, no heating) [days]
O=C1NCC/C1=C\c1ccc2c(c1)OCO2 [Compound 101]	46	1	90	61	0.03	specifically and significantly suppressed	↓↓↓	↓↓↓	↓↓↓	↓↓↓	↓↓↓	no change	<1	145	29	–	–	–	–	–
O=CN1CC/C(=C\c2ccc3c(c2)OCO3)C1=O [Compound 102]	57	3	88	75	0.04	specifically and significantly suppressed	↓↓↓	↓↓↓	↓↓↓	↓↓↓	↓↓↓	no change	<1	–	–	0	69	12.6	13.3	8.4
O=C1NCCC/C1=C\c1ccc2c(c1)OCO2 [Compound 103]	47	10	93	62	0.1	specifically and significantly suppressed	↓↓↓	↓↓↓	↓↓↓	↓↓↓	↓↓↓	no change	<1	90	56	2	46	–	–	–
CC(=O)N1CCC(=Cc2ccc3c(c2)OCO3)C1=O [Compound C, 1-acetyl-3-benzo-(1,3)dioxole-5-ylmethylene-pyrrolidin-2-one]	40	11	91	88	–	–	–	–	–	–	–	–	–	–	–	–	–	–	–	–
CN(C)CCCN1c2ccccc2CCc2ccccc21 [Imipramine, imipramine, reference compound]	–	–	–	–	–	–	–	–	–	–	–	–	–	180	12	–	–	–	–	–
O=c1c(O)c(-c2ccc(O)c(O)c2)oc2cc(O)cc(O)c12 [Quercetin, quercetin, reference compound]	99	25	96	82	0.4	–	↓↓	↓↓	↓	↓	↓	no change	6	–	–	6	58	–	–	–
